Test results: ChEMBL document CHEMBL5303573, “Mapping human microbiome drug metabolism by gut bacteria and their genes” (Nature, 2019)

How the values were obtained:
[1] = The drug is tested on Enterococcus faecalis strain: V583 for biotransformation. The drug concentrations were measured before and after a 12-h incubation by liquid-chromatography-coupled mass spectrometry (LC–MS); details: 2 µM
[2] = The drug is tested on Bifidobacterium ruminantium strain: fecal isolate for biotransformation. The drug concentrations were measured before and after a 12-h incubation by liquid-chromatography-coupled mass spectrometry (LC–MS); details: 2 µM
[3] = The drug is tested on Parabacteroides merdae strain: ATCC43184 for biotransformation. The drug concentrations were measured before and after a 12-h incubation by liquid-chromatography-coupled mass spectrometry (LC–MS); details: 2 µM
[4] = The drug is tested on Blautia hansenii strain: DSM20583 for biotransformation. The drug concentrations were measured before and after a 12-h incubation by liquid-chromatography-coupled mass spectrometry (LC–MS); details: 2 µM
[5] = bacteroides thetaiotaomicron, 12 h, 2 µM
Description: The drug is tested on Bacteroides thetaiotaomicron strain: 7330 for biotransformation. The drug concentrations were measured before and after a 12-h incubation by liquid-chromatography-coupled mass spectrometry (LC–MS)

[6] = The drug is tested on Bacteroides uniformis strain: ATCC8492 for biotransformation. The drug concentrations were measured before and after a 12-h incubation by liquid-chromatography-coupled mass spectrometry (LC–MS); details: 2 µM
[7] = bacteroides fragilis, 12 h, 2 µM
Description: The drug is tested on Bacteroides fragilis strain: DS-208 for biotransformation. The drug concentrations were measured before and after a 12-h incubation by liquid-chromatography-coupled mass spectrometry (LC–MS)

[8] = bacteroides thetaiotaomicron, 12 h, 2 µM; remark: listed apart in the source
Description: The drug is tested on Bacteroides thetaiotaomicron strain: VPI-5482 for biotransformation. The drug concentrations were measured before and after a 12-h incubation by liquid-chromatography-coupled mass spectrometry (LC–MS)

[9] = The drug is tested on Alistipes indistinctus strain: DSM22520 for biotransformation. The drug concentrations were measured before and after a 12-h incubation by liquid-chromatography-coupled mass spectrometry (LC–MS); details: 2 µM
[10] = roseburia intestinalis, 12 h, 2 µM
Description: The drug is tested on Roseburia intestinalis strain: L1-82 for biotransformation. The drug concentrations were measured before and after a 12-h incubation by liquid-chromatography-coupled mass spectrometry (LC–MS)

[11] = The drug is tested on Anaerococcus hydrogenalis strain: DSM7454 for biotransformation. The drug concentrations were measured before and after a 12-h incubation by liquid-chromatography-coupled mass spectrometry (LC–MS); details: 2 µM
[12] = The drug is tested on Enterobacter cancerogenus strain: ATCC35316 for biotransformation. The drug concentrations were measured before and after a 12-h incubation by liquid-chromatography-coupled mass spectrometry (LC–MS); details: 2 µM
[13] = The drug is tested on Bacteroides coprophilus strain: DSM18228 for biotransformation. The drug concentrations were measured before and after a 12-h incubation by liquid-chromatography-coupled mass spectrometry (LC–MS); details: 2 µM
[14] = victivallis vadensis, 12 h, 2 µM
Description: The drug is tested on Victivallis vadensis strain: ATCC BAA-548 for biotransformation. The drug concentrations were measured before and after a 12-h incubation by liquid-chromatography-coupled mass spectrometry (LC–MS)

[15] = The drug is tested on Coprococcus comes strain: ATCC27758 for biotransformation. The drug concentrations were measured before and after a 12-h incubation by liquid-chromatography-coupled mass spectrometry (LC–MS); type: ADME; design: dose 2 uM, timepoint 0 vs 12 hours; details: 2 µM
[16] = The drug is tested on Bacteroides finegoldii strain: DSM17565 for biotransformation. The drug concentrations were measured before and after a 12-h incubation by liquid-chromatography-coupled mass spectrometry (LC–MS); details: 2 µM
[17] = The drug is tested on Bacteroides dorei strain: DSM17855 for biotransformation. The drug concentrations were measured before and after a 12-h incubation by liquid-chromatography-coupled mass spectrometry (LC–MS); details: phocaeicola dorei, 2 µM
[18] = The drug is tested on Escherichia coli strain: BW25113 for biotransformation. The drug concentrations were measured before and after a 12-h incubation by liquid-chromatography-coupled mass spectrometry (LC–MS); details: 2 µM
[19] = The drug is tested on Bacteroides vulgatus strain: ATCC8482 for biotransformation. The drug concentrations were measured before and after a 12-h incubation by liquid-chromatography-coupled mass spectrometry (LC–MS); details: phocaeicola vulgatus, 2 µM

| Compound | Bacterial Biotransformation [1] | Bacterial Biotransformation [2] | Bacterial Biotransformation [3] | Bacterial Biotransformation [4] | Bacterial Biotransformation [5] | Bacterial Biotransformation [6] | Bacterial Biotransformation [7] | Bacterial Biotransformation [8] | Bacterial Biotransformation [9] | Bacterial Biotransformation [10] | Bacterial Biotransformation [11] | Bacterial Biotransformation [12] | Bacterial Biotransformation [13] | Bacterial Biotransformation [14] | Bacterial Biotransformation [15] | Bacterial Biotransformation [16] | Bacterial Biotransformation [17] | Bacterial Biotransformation [18] | Bacterial Biotransformation [19] |
| --- | --- | --- | --- | --- | --- | --- | --- | --- | --- | --- | --- | --- | --- | --- | --- | --- | --- | --- | --- |
| NS(=O)(=O)c1cc2c(cc1Cl)N=C(CSCc1ccccc1)NS2(=O)=O [BENZTHIAZIDE] | Compound NOT metabolized | Compound NOT metabolized | Compound NOT metabolized | Compound metabolized | Compound NOT metabolized | Compound NOT metabolized | Compound NOT metabolized | Compound NOT metabolized | Compound NOT metabolized | Compound NOT metabolized | Compound NOT metabolized | Compound NOT metabolized | Compound NOT metabolized | Compound NOT metabolized | – | – | – | – | – |
| CC(C)(Oc1ccc(CCNC(=O)c2ccc(Cl)cc2)cc1)C(=O)O [BEZAFIBRATE] | Compound NOT metabolized | Compound metabolized | Compound metabolized | Compound NOT metabolized | Compound metabolized | Compound metabolized | Compound metabolized | Compound metabolized | Compound NOT metabolized | Compound metabolized | Compound metabolized | Compound metabolized | Compound metabolized | Compound NOT metabolized | Compound metabolized | Compound metabolized | Compound metabolized | Compound metabolized | Compound metabolized |
| O=P1(N(CCCl)CCCl)NCCCO1 (stereo not given) [CYCLOPHOSPHAMIDE ANHYDROUS] | Compound NOT metabolized | Compound NOT metabolized | Compound NOT metabolized | Compound metabolized | – | Compound NOT metabolized | Compound NOT metabolized | Compound NOT metabolized | Compound metabolized | Compound NOT metabolized | Compound NOT metabolized | Compound NOT metabolized | Compound NOT metabolized | Compound NOT metabolized | – | Compound NOT metabolized | – | Compound NOT metabolized | Compound NOT metabolized |
| CCOc1cc(CC(=O)N[C@@H](CC(C)C)c2ccccc2N2CCCCC2)ccc1C(=O)O [REPAGLINIDE] | Compound NOT metabolized | Compound NOT metabolized | Compound NOT metabolized | Compound NOT metabolized | Compound metabolized | Compound metabolized | – | – | Compound NOT metabolized | Compound NOT metabolized | Compound NOT metabolized | Compound NOT metabolized | Compound metabolized | Compound NOT metabolized | Compound NOT metabolized | Compound metabolized | Compound metabolized | – | Compound NOT metabolized |
